Reference: patent US10221163B2 (priority 2015, dated 2019)
Like-named read-outs stand apart in the source and are kept apart here.

Assays:
[1] = system: Pseudomonas aeruginosa efflux+ (MB9798), IMP-1; format: cell-based; settings: concentration restoring susceptibility to imipenem at 2 μg/mL in the presence of a class A, C, D serine β-lactamase inhibitor closely related to relebactam
Procedure, shortened: (§1)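 Steps: add fixed imipenem and/or ceftazidime (usually CLSI breakpoint) and fixed AmpC-directed class A/C inhibitor to microbroth MIC wells; titrate MBL inhibitor; record concentration regaining susceptibility for each PAO1-derived strain; divide efflux+ by efflux− value.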

[2] = system: Escherichia coli expressing NDM-1 (CLB30005, CLB30016); format: cell-based; settings: with imipenem 1 μg/ml; 95% inhibition of bacterial growth
Procedure, shortened: (§2)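 Clinical strains grown overnight on blood agar at 35°C, colonies suspended in saline, diluted 1:100 into 1.1×CAMHB. Test compound titrated with imipenem at 1 μg/ml; incubated 22–24 h at 35°C, growth read by absorbance.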

[3] = system: Serratia marcescens expressing IMP-1 (CL5741); format: cell-based; settings: with imipenem 1 μg/ml; 95% inhibition of bacterial growth
Procedure, shortened: as §2

[4] = system: Klebsiella pneumoniae expressing VIM-1 (IHMA599644); format: cell-based; settings: with imipenem 1 μg/ml; 95% inhibition of bacterial growth
Procedure, shortened: as §2

[5] = biological target: NDM-1 (Klebsiella pneumoniae, UniProt C7C422); test: biochemical; format: biochemical; settings: fluorescence assay, CCF2-FA substrate, 1 pM enzyme, 2 hours at 25° C.; read-out: NDM-1 IC50
NDM-1, sequence (C7C422 whole entry, looked up, species assumed): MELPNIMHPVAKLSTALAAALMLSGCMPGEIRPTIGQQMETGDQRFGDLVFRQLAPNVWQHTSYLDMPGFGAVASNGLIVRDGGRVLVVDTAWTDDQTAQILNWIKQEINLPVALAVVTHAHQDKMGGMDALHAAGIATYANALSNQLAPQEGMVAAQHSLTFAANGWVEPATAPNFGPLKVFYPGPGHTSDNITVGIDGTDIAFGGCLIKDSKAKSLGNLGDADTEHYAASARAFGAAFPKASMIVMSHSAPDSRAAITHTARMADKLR
Procedure, shortened: (§3)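 IC50 values derive from 4-parameter fits of percent inhibition against inhibitor concentration on semi-log axes. Activity was monitored by fluorescence with the CCF2-FA substrate after a 2-hour, 25° C incubation of compound, enzyme and substrate.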

[6] = biological target: IMP-1 (Serratia marcescens, UniProt P52699); test: biochemical; format: biochemical; settings: fluorescence assay, CCF2-FA substrate, 2 pM enzyme, 2 hours at 25° C.; read-out: IMP-1 IC50
IMP-1, sequence (P52699 whole entry, looked up, species assumed): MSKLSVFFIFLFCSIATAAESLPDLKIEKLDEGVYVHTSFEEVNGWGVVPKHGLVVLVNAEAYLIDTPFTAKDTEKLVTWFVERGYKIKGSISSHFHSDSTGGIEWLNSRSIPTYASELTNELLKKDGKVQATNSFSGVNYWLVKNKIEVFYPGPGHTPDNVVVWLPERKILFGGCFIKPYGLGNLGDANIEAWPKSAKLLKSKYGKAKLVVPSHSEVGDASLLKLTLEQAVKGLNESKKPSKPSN
Procedure, shortened: as §3

[7] = system: Pseudomonas aeruginosa MB9798 vs MB9799; settings: ratio MITC95 PA_9798/MITC95 PA_9799
Procedure, shortened: as §1

[8] = system: Pseudomonas aeruginosa efflux− (MB9799), IMP-1; format: cell-based; settings: concentration restoring susceptibility to imipenem at 2 μg/mL in the presence of a class A, C, D serine β-lactamase inhibitor closely related to relebactam
Procedure, shortened: as §1

[9] = biological target: VIM-1 (Pseudomonas aeruginosa (strain ATCC 15692 / DSM 22644 / CIP 104116 / JCM 14847 / LMG 12228 / 1C / PRS 101 / PAO1), UniProt A0A0F7KYQ8); test: biochemical; settings: CCF2-FA substrate, 30 pM enzyme, 2 hours at 25° C.
Procedure, shortened: as §3

[10] = fluorescence assay, read-out: VIM-1 IC50

SMILES	P. aeruginosa expressing IMP-1, efflux + (MB9798) MITC95 [1] [µM]	Escherichia coli expressing NDM-1 (CLB30016) MITC95 [2] [µM]	Serratia marcescens expressing IMP-1 (CL5741) MITC95 [3] [µM]	Klebsiella pneumoniae expressing VIM-1 (IHMA599644) MITC95 [4] [µM]	IC50 [5] [nM]	IC50 [6] [nM]	Efflux ratio [7]	P. aeruginosa expressing IMP-1, efflux − (MB9799) MITC95 [8] [µM]	IC50 [9, 10] [nM]	IC50 ([9]; VIM-1 IC50, fluorescence assay) [nM]
CS(=O)(=O)Nc1nc2c(-c3ccc(S(=O)(=O)N4CCNCC4)c(S(N)(=O)=O)c3-c3nn[nH]n3)cccc2s1 [Example 156, 3-(2-(Methylsulfonamido)benzo[d]thiazol-4-yl)-6-(piperazin-1-ylsulfonyl)-2-(2H-tetrazol-5-yl)benzenesulfonamide]	12.5	6.25	12.5	25	0.29	0.898	2.00	6.25	1.74	
Nc1nc2cccc(-c3ccc(S(=O)(=O)N4CCNCC4)c(S(N)(=O)=O)c3-c3nn[nH]n3)c2[nH]1 [Example 157, 3-(2-amino-3H-benzo[d]imidazol-4-yl)-6-(piperazin-1-ylsulfonyl)-2-(2H-tetrazol-5-yl)benzenesulfonamide]	1.781	0.125	0.8906	1.281	0.32	3.09	4.00	0.4453	0.827	
Cn1c(N)nc2c(-c3ccc(S(=O)(=O)N4CCNCC4)c(S(N)(=O)=O)c3-c3nn[nH]n3)cccc21 [Example 158, 3-(2-amino-1-methyl-1H-benzo[d]imidazol-4-yl)-6-(piperazin-1-ylsulfonyl)-2-(2H-tetrazol-5-yl)benzenesulfonamide]	3.125	0.25	0.8906	1.781	0.601	1.71	3.51	0.8906		1.27
Nc1nc2c(-c3ccc(S(=O)(=O)N4CCNCC4)c(S(N)(=O)=O)c3-c3nn[nH]n3)cccc2o1 [Example 159, 3-(2-aminobenzo[d]oxazol-4-yl)-6-(piperazin-1-ylsulfonyl)-2-(2H-tetrazol-5-yl)benzenesulfonamide]	3.125	1.563	1.563	3.125	0.195	1.29	2.00	1.563	0.51	
NS(=O)(=O)c1c(S(=O)(=O)N2CCNCC2)ccc(-c2cccc3cn[nH]c23)c1-c1nnn[nH]1 [Example 160, 3-(1H-indazol-7-yl)-6-(piperazin-1-ylsulfonyl)-2-(1H-tetrazol-5-yl)benzenesulfonamide]	6.25	3.125	1.563	3.125	0.599	1.39	4.00	1.563	1.07	
Nc1nc2c(-c3ccc(S(=O)(=O)N[C@@H]4CCNC4)c(S(N)(=O)=O)c3-c3nn[nH]n3)cccc2[nH]1 [Example 161, 4-(2-amino-1H-benzo[d]imidazol-4-yl)-N^1—((R)-pyrrolidin-3-yl)-3-(2H-tetrazol-5-yl)benzene-1,2-disulfonamide]	0.3993	0.2995	0.5295	0.8542	0.0314	0.401	0.78	0.5139	0.106	
Nc1nc2c(-c3ccc(S(=O)(=O)N[C@H]4CCNC4)c(S(N)(=O)=O)c3-c3nn[nH]n3)cccc2[nH]1 [Example 162, 4-(2-amino-1H-benzo[d]imidazol-4-yl)-N^1-((S)-pyrrolidin-3-yl)-3-(2H-tetrazol-5-yl)benzene-1,2-disulfonamide]	0.4271	0.3203	0.5573	0.9844	0.0607	0.733	0.87	0.4922	0.154	
Cn1c(N)nc2c(-c3ccc(S(=O)(=O)N[C@H]4CCNC4)c(S(N)(=O)=O)c3-c3nn[nH]n3)cccc21 [Example 163, 4-(2-amino-1-methyl-1H-benzo[d]imidazol-4-yl)-N^1-((S)-pyrrolidin-3-yl)-3-(2H-tetrazol-5-yl)benzene-1,2-disulfonamide]	0.7813	0.3906	0.7813	0.7813	0.0605	0.45	1.00	0.7813	0.118	
Cn1c(N)nc2c(-c3ccc(S(=O)(=O)N[C@@H]4CCNC4)c(S(N)(=O)=O)c3-c3nn[nH]n3)cccc21 [Example 164, 4-(2-amino-1-methyl-1H-benzo[d]imidazol-4-yl)-N^1-((R)-pyrrolidin-3-yl)-3-(2H-tetrazol-5-yl)benzene-1,2-disulfonamide]	0.7813	0.3906	0.7813	0.7813	0.0378	0.272	1.00	0.7813	0.105	
NC1CCC(c2ccc(S(N)(=O)=O)c(S(N)(=O)=O)c2-c2nnn[nH]2)CC1 (stereo not drawn) [Example 165, 4-(4-aminocyclohexyl)-3-(1H-tetrazol-5-yl)benzene-1,2-disulfonamide]	6.25	0.3906	1.563	3.125	17.7	24.4	4.00	1.563		1.17
C[N+]1(C)CC[C@H](NS(=O)(=O)c2ccc(-c3cccc4[nH]c(N)nc34)c(-c3nn[n-]n3)c2S(N)(=O)=O)C1 [Example 166, (S)-5-(6-(2-amino-1H-benzo[d]imidazol-4-yl)-3-(N-(1,1-dimethylpyrrolidin-1-ium-3-yl)sulfamoyl)-2-sulfamoylphenyl)tetrazol-2-ide]	1.563	0.7813	1.563	3.125	0.0581	0.82	[…]	1.563		[…]
Cn1c(N)nc2c(-c3ccc(S(=O)(=O)N[C@H]4CC[N+](C)(C)C4)c(S(N)(=O)=O)c3-c3nn[n-]n3)cccc21 [Example 167, (S)-5-(6-(2-amino-1-methyl-1H-benzo[d]imidazol-4-yl)-3-(N-(1,1-dimethylpyrrolidin-1-ium-3-yl)sulfamoyl)-2-sulfamoylphenyl)tetrazol-2-ide]	3.125	1.563	1.563	3.125	0.0591	0.346	2.00	1.563		0.169
